For data set [1] the following is noted: racemate; cited from earlier work.
For data set [2] the following is noted: background statement; cited from earlier work.
The conditions of data set [3]: background statement, cited from earlier work.
Data set [4] is classed as in vitro ADME, human. As to the method:
The effect of selected formulations on levormeloxifene fumarate permeation through human skin in vitro is illustrated in the following way:
Franz glass diffusion cells were used (Franz, T. J.: Curr. Probl. Dermatol., 1978: 7; 58-68).
Experiments were performed on abdominal or breast skin obtained after surgery and kept at -20° C. for not more than ten months. After initial thawing the skin was squeezed between a metal and a glass plate, and after refreezing the skin was dermatomed to a thickness of 0.5 mm.
The human skin membrane was enclosed in the glass chambers with ground faces (diffusing area 0.64 cm^2). A clamp was used to keep the chambers together. […]
After the skin was allowed to equilibrate at 32° C. for one hour, the capacitance was measured with a Lutron DM 6023 Capacitance meter. […]
The donor solutions were made of selected vehicles which were saturated with levormeloxifene fumarate, cf. […] The concentrations of levormeloxifene fumarate in the donor solutions were determined previously by a HPLC method. […]
At appropriate intervals, samples were taken from the receptor phase and replaced by fresh receptor solution in order to keep sink-conditions. The amount of levormeloxifene fumarate in the receptor solution was determined using liquid scintillatory counting. […]
The mean value and the standard deviation were calculated of the flux J of the replicates. […]

The nature of data set [5]: Concentration of levormeloxifene fumarate in saturated donor solutions (HPLC). The settings on record: stirred 24 hours, room temperature; for solubility thermodynamic at 24 h: read-out: Conc. unmarked (donor phase saturated). The format is physicochemical. The method, then: The donor solutions were made of selected vehicles which were saturated with levormeloxifene fumarate, cf. Table 1. To prepare the donor solutions, levormeloxifene fumarate was added to the vehicles, and after stirring at room temperature for 24 hours, the donor solution was saturated with levormeloxifene fumarate and filtered through a Millipore filter 0.22 μm. Thereafter ^14 C-levormeloxifene was added to 1.00 ml of the donor solution to give a final concentration of ^14 C-levormeloxifene at 3 mg/ml (1,3 mCi/mi). Thereafter the donor solution was applied on the epidermal side of the skin, and the experiment was performed with occlusion. The concentrations of levormeloxifene fumarate in the donor solutions were determined previously by a HPLC method.

We go through four molecules from patent US5935987A, “Transdermal delivery of 3,4-diarylchromans” (priority 1996, dated 1999).

Structures are written as SMILES. “And” between values parts separate entries of the source, which are not always exact repeats. Equal values may be shown once. Where a name gives a salt, the structure may show the parent alone. Read-outs that look alike come from different tables or passages of the source.

As for `COc1ccc2c(c1)OC(C)(C)[C@@H](c1ccccc1)[C@@H]2c1ccc(OCCN2CCCC2)cc1` (relative stereo) [Centchroman], the cholesterol lowering entry in data set [1] was “potent cholesterol lowering pharmaceutical agent expressed by a significant decrease of the serum concentrations”.
Regarding `COc1ccc2c(c1)OC(C)(C)[C@@H](c1ccccc1)[C@@H]2c1ccc(OCCN2CCCC2)cc1` [hydrochloride salt], the hygroscopicity result in data set [2] is listed as “hygroscopic”. Moreover, in data set [3], the “behaviour in aqueous suspension” value was “forms a solid gel in aqueous suspension” and the solubility in water entry is reported as “quite heavy soluble in water”.
Molecule `COc1ccc2c(c1)OC(C)(C)[C@@H](c1ccccc1)[C@@H]2c1ccc(OCCN2CCCC2)cc1` [levormeloxifene fumarate, (-)-3R,4R-trans-7-methoxy-2,2-dimethyl-3-phenyl-4-{4-[2-(pyrrolidin-1-yl)ethoxy]phenyl}chromane, hydrogen fumarate] yielded a Dosage per day in data set [4] of 0.56 mg. Besides, the “Flux ± S.D.” value in data set [4] (pH 4) came out at 0.495 ± 0.125 mg × cm^-2 × h^-1. The solubility thermodynamic at 24 h in data set [5] (acetic acid 0.05m (b4), pH 4, vehicle B4 (acetic acid 0.05M, pH 4)) was found to be 325 µg/mL; in data set [5] (b4 + 2% 2-pyrrolidon, vehicle B4 + 2% 2-pyrrolidon), 420 µg/mL; in data set [5] (b4 + 20% ethanol, organic solvent or mixture, vehicle B4 + 20% ethanol) it was 1400 µg/mL; in data set [5] (b4 + 30% ethanol, organic solvent or mixture, vehicle B4 + 30% ethanol), 3100 µg/mL; in data set [5] (pg + 10% oleic acid, organic solvent or mixture, vehicle PG + 10% oleic acid), 116000 µg/mL. Further, the “Conc. unmarked (donor phase saturated)” value in data set [5] (vehicle B4 (acetic acid 0.05M, pH 4), 1440 min) is 320 µg/mL and 325 µg/mL.
For the molecule `COc1ccc2c(c1)OC(C)(C)[C@@H](c1ccccc1)[C@@H]2c1ccc(OCCN2CCCC2)cc1` [levormeloxifene, (-)-3R,4R-trans-7-methoxy-2,2-dimethyl-3-phenyl-4-{4-[2-(pyrrolidin-1-yl)ethoxy]phenyl}chromane], the solubility in water entry in data set [3] (listed as free base) was “very poor solubility in water”.
